Test system: human myeloma cell line MM.1S
Experiment: SILAC acetylated-lysine peptide profiling, HDAC inhibitor vs DMSO (light/heavy ratio)
Assay type: cell-based
From the text: An embodiment of the invention comprises utilizing the SILAC method in order to quantitate changes in protein expression between two or more populations of cells. The SILAC method is a technique based on mass spectrometry that detects differences in protein abundance among samples using non-radioactive isotopic labeling. The SILAC method is known in the art, and described in detail in Ong et al., “Stable Isotope Labeling by Amino Acids in Cell Culture, SILAC, as a Simple and Accurate Approach to Expression Proteomics”, Molecular & Cellular Proteomics, vol. 1, pp. 376-386 (2002), which is incorporated herein by reference in its entirety.
Briefly, the SILAC method involves growing two populations of cells in cell culture. The first population of cells is grown in growth media containing normal amino acids (“normal media”). The second population of cells is grown in media lacking a standard essential amino acid (such as lysine), but is then supplemented with a non-radioactive, isotopically labeled form of that essential amino acid (such as lysine labeled with ^13C atoms, rather than normal ^12C atoms), which is called “heavy media”. When the two populations of cells are each growing in the medium, they incorporate the amino acids into all of their proteins. The growth of cells maintained in the heavy media is no different from that in normal media. All peptides containing the heavy amino acids are heavier than their normal counterparts. The cells from each of the two populations of cells are lysed. The lysates from each of the two cell populations are then combined. The combined cell lysates are then analyzed by mass spectrometry. Pairs of chemically identical peptides of different stable isotope composition can be differentiated in a mass spectrometer due to their difference in mass. The ratio of peak intensities in the mass spectrum for such peptide pairs reflects the abundance ratio for the two proteins.
This example describes SILAC studies that were performed to compare the effects of three different HDAC inhibitors (Compound A, Compound B, and tubastatin A) to a control on a human multiple myeloma cell line. The HDAC inhibitors were also compared amongst themselves to determine differences in their effects.
A human myeloma cell line MM.1S was grown using either ^12C (light) or ^13C (heavy) lysine containing culture medium. The “heavy” cells were treated with DMSO as the control, and the “light” cells were treated with a single HDAC inhibitor at 37° C. for 6 hours. The heavy and light cells were lysed, and the lysates were mixed in 1:1 ratio and digested with the protease trypsin. The acetylated lysine containing peptides (due to the action of the HDAC inhibitor) in the digested peptide pool were captured by a non-specific anti-acetylated lysine antibody cocktail (the antibodies identify both light and heavy acetylated peptides), and subjected to mass spectrometry analysis in order to identify thousands of individual peptides.
Thousands of peptides were identified in pairs (^12C and ^13C) due to their known mass differences. The amino acid sequence and quantitative ratio (Light/Heavy) of a given peptide in two differentially treated cell lysates were then determined and annotated with their possible protein (gene) sources.
As stated above, three HDAC inhibitors (Compound A, Compound B, and Tubastatin A) were used. Thus, the SILAC method was performed three times, with a different HDAC inhibitor compared to a control each time. Accordingly, there are three pairs of quantitative data in the table below, i.e., Compound A:DMSO, Compound B:DMSO, and Tubastatin A:DMSO. A cut-off of 1.30 fold of change (increase or decrease) was then used to determine “changed” or “+” in the table, and any peptides with a fold of change less than 1.3 fold were determined to be “unchanged” or “0” in the table. Those peptides that were not identified were marked as “NA” in the table. […]

Question: With `O=C(CCCCCCNC(=O)c1cnc(N(c2ccccc2)c2ccccc2)nc1)NO` [Compound A, 2-(diphenylamino)-N-(7-(hydroxyamino)-7-oxoheptyl)pyrimidine-5-carboxamide] as the molecule, how does the “L/H ratio of acetylated peptide (ac)[…](ac)AAK (SEQ ID NO: 6)” value (VDAC3 [12], log 2 scale, drug vs DMSO) read?
Answer: 0.00

Question: What about the “L/H ratio of acetylated peptide YK(ac)[…] (SEQ ID NO: 117)” value (VDAC3 [63], log 2 scale, drug vs DMSO) of the same molecule?
Answer: 0.00

Question: And the “light to heavy ratio (L/H ratio) of acetylated peptide, log 2 scale” value (VGIVGK(ac)YGTR (SEQ ID NO: 250), 60S ribosomal protein L37a [13], RPL37A)?
Answer: −0.44

Question: And the “L/H ratio of acetylated peptide TNEK(ac)VELQELNDR (SEQ ID NO: 122)” value (VIM [104], log 2 scale, drug vs DMSO)?
Answer: 0.00

Question: What about the “L/H ratio of acetylated peptide FANYIDK(ac)VR (SEQ ID NO: 118)” value (VIM [120], log 2 scale, drug vs DMSO) of the same molecule?
Answer: 0.00

Question: And the “L/H ratio of acetylated peptide […](ac)GQGK (SEQ ID NO: 119)” value (VIM [139], log 2 scale, drug vs DMSO)?
Answer: 0.00

Question: And the “L/H ratio of acetylated peptide SK(ac)[…] (SEQ ID NO: 121)” value (VIM [294], log 2 scale, drug vs DMSO)?
Answer: 0.00

Question: What about the “L/H ratio of acetylated peptide LQDEIQNMK(ac)EEMAR (SEQ ID NO: 120)” value (VIM [373], log 2 scale, drug vs DMSO) of the same molecule?
Answer: 0.00

Question: And the “light to heavy ratio (L/H ratio) of acetylated peptide […](ac)QLFR (SEQ ID NO: 321)” value (Vesicle-trafficking protein SEC22b [38], SEC22B, drug:DMSO)?
Answer: 1.00 log 2

Question: What about the “light to heavy ratio (L/H ratio), log 2 scale, acetylated peptide EK(ac)LQEEMLQR (SEQ ID NO: 762)” value (Vimentin [188], gene VIM, drug:DMSO) of the same molecule?
Answer: 0.92

Question: And the “light to heavy ratio (L/H ratio) of acetylated peptide TLLIK(ac)TVETR (SEQ ID NO: 269)” value (Vimentin [445], VIM, drug:DMSO)?
Answer: 0.45 log 2

Question: And the “light to heavy ratio (L/H ratio) of acetylated peptide IAAYK(ac)SILQER (SEQ ID NO: 531)” value (X-ray repair cross-complementing protein 5 [265], gene XRCC5, inhibitor:DMSO)?
Answer: −0.41 log 2

Question: And the “light to heavy ratio (L/H ratio) of acetylated peptide EEAIK(ac)FSEEQR (SEQ ID NO: 509)” value (X-ray repair cross-complementing protein 5 [648], gene XRCC5, inhibitor:DMSO)?
Answer: −0.60 log 2

Question: And the “light to heavy ratio (L/H ratio) of acetylated peptide FNNFLK(ac)ALQEK (SEQ ID NO: 545)” value (X-ray repair cross-complementing protein 5 [660], gene XRCC5, inhibitor:DMSO)?
Answer: 0.39 log 2

Question: What about the “light to heavy ratio (L/H ratio) of acetylated peptide […](ac)HFQD (SEQ ID NO: 355)” value (X-ray repair cross-complementing protein 6 [605], XRCC6, drug:DMSO) of the same molecule?
Answer: 0.00 log 2

Question: And the “L/H ratio of acetylated peptide ALQEK(ac)VEIK (SEQ ID NO: 123)” value (XRCC5 [665], log 2 scale, drug vs DMSO)?
Answer: 0.00

Question: What about the “light to heavy ratio (L/H ratio) of acetylated peptide, log 2 scale” value (YNCDK(ac)MICR (SEQ ID NO: 254), Ubiquitin-605 ribosomal protein L40 [93], UBA52) of the same molecule?
Answer: 0.38

Question: And the “light to heavy ratio (L/H ratio) of acetylated peptide YFLDK(ac)TLTSR (SEQ ID NO: 293)” value ([3-methyl-2-oxobutanoate dehydrogenase [lipoamide]] kinase mitochondrial [192], BCKDK, drug:DMSO)?
Answer: 0.68 log 2

Question: What about the “L/H ratio of acetylated peptide” value ([…](ac)MVAAK (SEQ ID NO: 491), Cyclic AMP-dependent transcription factor ATF-4 [267], ATF4) of the same molecule?
Answer: −1.00 log 2

Question: And the “L/H ratio of acetylated peptide” value ([…](ac)YPLR (SEQ ID NO: 493), Isoform 1 of NADH-cytochrome b5 reductase 3 [42], CYB5R3)?
Answer: −1.00 log 2

Question: And the “light to heavy ratio (L/H ratio) of acetylated peptide SAYFAEK(ac)LYK (SEQ ID NO: 292)” value (annexin A4 [255], ANXA4, drug:DMSO)?
Answer: 0.67 log 2

Question: And the “light to heavy ratio (L/H ratio) of acetylated peptide TLFVK(ac)[…] (SEQ ID NO: 511)” value (cDNA FLJ45706 fis clone FEBRA2028457 highly similar to Nucleolin [470], gene NCL, inhibitor:DMSO)?
Answer: −0.59 log 2

Question: And the “light to heavy ratio (L/H ratio) of acetylated peptide ILMSK(ac)PVLSGGTGR (SEQ ID NO: 291)” value (cDNA FLJ55380 highly similar to Protein kinase C-binding protein 1 [440], ZMYND8, drug:DMSO)?
Answer: 0.67 log 2

Question: What about the “light to heavy ratio (L/H ratio) of acetylated peptide YDGK(ac)WEVEEMK (SEQ ID NO: 274)” value (cDNA FLJ55574 highly similar to Calnexin [138], CANX, drug:DMSO) of the same molecule?
Answer: 0.48 log 2

Question: What about the “light to heavy ratio (L/H ratio) of acetylated peptide LNK(ac)PFLFDTK (SEQ ID NO: 327)” value (cDNA FLJ55574 highly similar to Calnexin [172], CANX, drug:DMSO) of the same molecule?
Answer: 0.00 log 2

Question: What about the “light to heavy ratio (L/H ratio) of acetylated peptide LIGK(ac)QGR (SEQ ID NO: 629)” value (cDNA FLJ56047 highly similar to A kinase anchor protein 1 mitochondrial [667], gene AKAP1, inhibitor:DMSO) of the same molecule?
Answer: 0.49 log 2

Question: What about the “light to heavy ratio (L/H ratio) of acetylated peptide LLASK(ac)SLLNR (SEQ ID NO: 322)” value (cDNA FLJ56303 highly similar to Translocon-associated protein subunit beta [46], SSR2, drug:DMSO) of the same molecule?
Answer: 1.00 log 2

Question: What about the “light to heavy ratio (L/H ratio) of acetylated peptide LPSSTK(ac)SGWPR (SEQ ID NO: 500)” value (cDNA FLJ75110 highly similar to Homo sapiens PHD finger protein 15 (PHF15) mRNA [38], gene PHF15, inhibitor:DMSO) of the same molecule?
Answer: −0.78 log 2

Question: And the “light to heavy ratio (L/H ratio) of acetylated peptide IINEVSK(ac)[…] (SEQ ID NO: 341)” value (cDNA FLJ77177 highly similar to Homo sapiens arginine-rich mutated in early stage tumors (ARMET) mRNA [97], MANF, drug:DMSO)?
Answer: 0.00 log 2

Question: What about the “light to heavy ratio (L/H ratio) of acetylated peptide TNVPVK(ac)LFAR (SEQ ID NO: 348)” value (cDNA FLJ77422 highly similar to Homo sapiens RNA binding protein autoantigenic (hnRNP-associated with lethal yellow homolog (mouse)) transcript variant 1 mRNA (Fragment) [165], RALY, drug:DMSO) of the same molecule?
Answer: 0.00 log 2

Question: What about the “light to heavy ratio (L/H ratio) of acetylated peptide EIAQEFK(ac)TDLR (SEQ ID NO: 337)” value (histone cluster 2 H3 pseudogene 2 [80], HIST2H3PS2, drug:DMSO) of the same molecule?
Answer: 0.00 log 2

Question: And the “light to heavy ratio (L/H ratio) of acetylated peptide GSK(ac)[…] (SEQ ID NO: 265)” value (membrane-associated progesterone receptor component 2 [159], PGRMC2, drug:DMSO)?
Answer: 0.43 log 2

Question: What about the “light to heavy ratio (L/H ratio) of acetylated peptide SK(ac)SDPIMLLK (SEQ ID NO: 255)” value (pyruvate dehydrogenase E1 component subunit alpha somatic form mitochondrial isoform 2 precursor [351], PDHA1, drug:DMSO) of the same molecule?
Answer: 0.39 log 2

Question: And the “light to heavy ratio (L/H ratio) of acetylated peptide VTNLLMLK(ac)GK (SEQ ID NO: 350)” value (regulator of differentiation 1 isoform 2 [64], ROD1, drug:DMSO)?
Answer: 0.00 log 2

Question: What about the “light to heavy ratio (L/H ratio) of acetylated peptide LTSLNVK(ac)YNNDK (SEQ ID NO: 590)” value (regulator of differentiation 1 isoform 2 [236], gene ROD1, inhibitor:DMSO) of the same molecule?
Answer: 0.44 log 2

Question: What about the “light to heavy ratio (L/H ratio) of acetylated peptide GWLK(ac)[…] (SEQ ID NO: 278)” value (triosephosphate isomerase isoform 2 [231], TPI1, TPI1P1, drug:DMSO) of the same molecule?
Answer: 0.54 log 2

Reference: patent US20140357512A1, “HISTONE DEACETYLASE (HDAC) BIOMARKERS IN MULTIPLE MYELOMA” (priority 2013, published 2014)
